Drawing on patent publication US9492460B2, “Carbazole compounds useful as bromodomain inhibitors” (Bristol-Myers Squibb Company, priority 2013, dated 2016), this text covers IC50 for 25 compounds.

The target in the test is T1, bromodomain BRD4 (44-168), BRD4 (333-460), and BRD4 (1-477 or 44-460) (Homo sapiens, UniProt O60885).
T1 construct: BRD4(44-168), BRD4(333-460), BRD4(44-460), BRD4(1-477), O60885-1; fused on or other part: N-terminal BirA biotinylation motif, biotinylated; The TVMV-cleavable His6 tag is removed, except in some BRD4(44-460) runs detected with anti-His terbium cryptate
The test can be described thus: Time Resolved Fluorescence Resonance Energy Transfer (TR-FRET) binding assay. To be noted: one of the FRET assays described.

pIC50: −log10 of the molar value.

`CNC(=O)c1cc(-c2c(C)noc2C)cc2c1c1cc(C(=O)N3CC(F)C3)ccc1n2C(C)c1ccc(F)cc1` (stereo not shown) [Example 112] had a pIC50 above 6.30.
With `CNC(=O)c1cc(-c2c(C)noc2C)cc2c1c1cc(C(=O)N3CC(F)C3)ccc1n2C(C)c1ccccc1` (stereo not shown) [Example 113], the negative-log IC50 (pIC50) was above 7.30.
In turn, `CNC(=O)c1cc(-c2c(C)noc2C)cc2c1c1cc(C(=O)N3CC(F)C3)ccc1n2CC1CCC1` [Example 114] showed a pIC50 above 7.30.
Consider `CNC(=O)c1cc(-c2c(C)noc2C)cc2c1c1cc(C(=O)N3CC(F)C3)ccc1n2CC1CC1` [Example 115], for which the pIC50 is above 7.30.
Turning to `CNC(=O)c1cc(-c2c(C)noc2C)cc2c1c1cc(C(=O)N3CC(F)C3)ccc1n2Cc1ccccn1` [Example 116, 2-(3,5-dimethylisoxazol-4-yl)-6-(3-fluoroazetidine-1-carbonyl)-N-methyl-9-(pyridin-2-ylmethyl)-9H-carbazole-4-carboxamide], the negative-log IC50 (pIC50) was above 7.30.
Compound `CNC(=O)c1cc(-c2c(C)noc2C)cc2c1c1cc(C(=O)N3C[C@@H](C)O[C@@H](C)C3)ccc1n2Cc1ccccc1` [Example 117, 9-benzyl-2-(3,5-dimethylisoxazol-4-yl)-6-(cis-2,6-dimethylmorpholine-4-carbonyl)-N-methyl-9H-carbazole-4-carboxamide] showed a pIC50 above 7.30.
`Cc1noc(C)c1-c1cc(C(=O)N(C)C)c2c3cc(C(=O)N4C[C@@H](C)O[C@@H](C)C4)ccc3n(Cc3ccccc3)c2c1` [Example 118, 9-benzyl-2-(3,5-dimethylisoxazol-4-yl)-6-(cis-2,6-dimethylmorpholine-4-carbonyl)-N,N-dimethyl-9H-carbazole-4-carboxamide] gave a negative logarithm of the IC50 (pIC50) above 6.30.
In turn, `CNC(=O)c1cc(-c2c(C)noc2C)cc2c1c1cc(C(=O)N3CC(F)(F)C3)ccc1n2C(C)c1ccccc1` (stereo not shown) [Example 119, 6-((3,3-difluoro-1-azetidinyl)carbonyl)-2-(3,5-dimethyl-4-isoxazolyl)-N-methyl-9-(1-phenylethyl)-9H-carbazole-4-carboxamide] showed a negative-log IC50 (pIC50) above 7.30.
As for `Cc1noc(C)c1-c1cc(C(=O)N(C)C)c2c3cc(C(=O)N4CC(F)(F)C4)ccc3n(C(C)c3ccccc3)c2c1` (stereo not shown) [Example 120, 6-((3,3-difluoro-1-azetidinyl)carbonyl)-2-(3,5-dimethyl-4-isoxazolyl)-N,N-dimethyl-9-(1-phenylethyl)-9H-carbazole-4-carboxamide], the figure is above 6.30; as for `Cc1noc(C)c1-c1cc(C#N)c2c3cc(C(=O)N4CC(F)C4)ccc3n(Cc3cccc(F)c3)c2c1` [Example 121, 2-(3,5-dimethyl-4-isoxazolyl)-6-((3-fluoro-1-azetidinyl)carbonyl)-9-(3-fluorobenzyl)-9H-carbazole-4-carbonitrile], above 6.30; as for `Cc1nocc1-c1cc(C(N)=O)c2c3cc(C(=O)N4CCOCC4)ccc3n(Cc3ccc(F)cc3)c2c1` [Example 122, 9-(4-fluorobenzyl)-2-(3-methyl-4-isoxazolyl)-6-(4-morpholinylcarbonyl)-9H-carbazole-4-carboxamide], above 7.30.
`Cc1oncc1-c1cc(C(N)=O)c2c3cc(C(=O)N4CCOCC4)ccc3n(Cc3ccc(F)cc3)c2c1` [Example 123, 9-(4-fluorobenzyl)-2-(5-methylisoxazol-4-yl)-6-(morpholine-4-carbonyl)-9H-carbazole-4-carboxamide]: the negative logarithm of the IC50 (pIC50) was above 6.30.
`CCCNC(=O)c1cc(-c2c(C)noc2C)cc2c1c1cc(C(=O)N3CC(F)C3)ccc1n2Cc1ccc(F)cc1` [Example 124, 2-(3,5-dimethyl-4-isoxazolyl)-6-((3-fluoro-1-azetidinyl)carbonyl)-9-(4-fluorobenzyl)-N-propyl-9H-carbazole-4-carboxamide]: the negative-log IC50 (pIC50) is above 7.30.
As for `Cc1noc(C)c1-c1cc(C(=O)NC2CC2)c2c3cc(C(=O)N4CC(F)C4)ccc3n(Cc3ccc(F)cc3)c2c1` [Example 125, N-cyclopropyl-2-(3,5-dimethyl-4-isoxazolyl)-6-((3-fluoro-1-azetidinyl)carbonyl)-9-(4-fluorobenzyl)-9H-carbazole-4-carboxamide], the figure is above 7.30; as for `CCNC(=O)c1cc(-c2c(C)noc2C)cc2c1c1cc(C(=O)N3CC(F)C3)ccc1n2Cc1ccc(F)cc1` [Example 126, 2-(3,5-dimethyl-4-isoxazolyl)-N-ethyl-6-((3-fluoro-1-azetidinyl)carbonyl)-9-(4-fluorobenzyl)-9H-carbazole-4-carboxamide], above 7.30; as for `Cc1noc(C)c1-c1cc(C(=O)NC(C)C)c2c3cc(C(=O)N4CC(F)C4)ccc3n(Cc3ccc(F)cc3)c2c1` [Example 127, 2-(3,5-dimethyl-4-isoxazolyl)-6-((3-fluoro-1-azetidinyl)carbonyl)-9-(4-fluorobenzyl)-N-isopropyl-9H-carbazole-4-carboxamide], above 5.12.
In turn, `Cc1noc(C)c1-c1cc(C(=O)NCC(C)C)c2c3cc(C(=O)N4CC(F)C4)ccc3n(Cc3ccc(F)cc3)c2c1` [Example 128, 2-(3,5-dimethyl-4-isoxazolyl)-6-((3-fluoro-1-azetidinyl)carbonyl)-9-(4-fluorobenzyl)-N-isobutyl-9H-carbazole-4-carboxamide] showed a pIC50 above 6.30.
With `Cc1noc(C)c1-c1cc(C(=O)N2CC(F)C2)c2c3cc(C(=O)N4CC(F)C4)ccc3n(Cc3ccc(F)cc3)c2c1` [Example 129, 2-(3,5-dimethyl-4-isoxazolyl)-4,6-bis((3-fluoro-1-azetidinyl)carbonyl)-9-(4-fluorobenzyl)-9H-carbazole], the negative logarithm of the IC50 (pIC50) is above 6.30.
As for `CNc1ccc2c(c1)c1c(C(N)=O)cc(-c3c(C)noc3C)cc1n2Cc1ccccc1` [Example 130, 9-Benzyl-2-(3,5-dimethyl-4-isoxazolyl)-6-(methylamino)-9H-carbazole-4-carboxamide], the figure is above 7.30.
Take `CC(=O)N(C)c1ccc2c(c1)c1c(C(N)=O)cc(-c3c(C)noc3C)cc1n2Cc1ccccc1` [Example 131, 9-benzyl-2-(3,5-dimethylisoxazol-4-yl)-6-(N-methylacetamido)-9H-carbazole-4-carboxamide]: the pIC50 is above 7.30.
In turn, `CNC(=O)c1cc(-c2c(C)noc2C)cc2c1c1cc(N(C)C(C)=O)ccc1n2Cc1ccccc1` [Example 132, 6-(acetyl(methyl)amino)-9-benzyl-2-(3,5-dimethyl-4-isoxazolyl)-N-methyl-9H-carbazole-4-carboxamide] showed a pIC50 above 7.30.
Compound `CNC(=O)c1cc(-c2c(C)noc2C)cc2c1c1cc(NC)ccc1n2Cc1ccccc1` [Example 133, 9-benzyl-2-(3,5-dimethyl-4-isoxazolyl)-N-methyl-6-(methylamino)-9H-carbazole-4-carboxamide] had a pIC50 above 7.30.
The same measure for `CC(=O)N(CCF)c1ccc2c(c1)c1c(C(N)=O)cc(-c3c(C)noc3C)cc1n2Cc1ccccc1` [Example 134, 6-(acetyl(2-fluoroethyl)amino)-9-benzyl-2-(3,5-dimethyl-4-isoxazolyl)-9H-carbazole-4-carboxamide]: above 7.30.
As for `Cc1noc(C)c1-c1cc(C(N)=O)c2c3cc(N)ccc3n(Cc3ccccc3)c2c1` [Example 135, 6-amino-9-benzyl-2-(3,5-dimethyl-4-isoxazolyl)-9H-carbazole-4-carboxamide], the figure is above 7.30; as for `Cc1noc(C)c1-c1cc(C(N)=O)c2c3cc(NCCF)ccc3n(Cc3ccccc3)c2c1` [Example 136, 9-benzyl-2-(3,5-dimethyl-4-isoxazolyl)-6-(2-fluoroethylamino)-9H-carbazole-4-carboxamide], above 7.30.
